This note sets out measurements from the Deep4Chem optical property database.

Structures are written as SMILES. Several values for one entry are separate records, joined by “and”; a condition that tells them apart may be missing. Equal values may be shown once.

The nature of this series: photoluminescence quantum yield (fraction); solvent given as SMILES.

Compound `N#Cc1ccc(/C2=C3N=C(C(c4ccccc4)=C/3c3ccccc3)/C(c3ccc(C#N)cc3)=c3\[nH]/c(c(-c4ccccc4)c3-c3ccccc3)=C(/c3ccc(C#N)cc3)C3=N/C(=C(/c4ccc(C#N)cc4)c4[nH]c2c(-c2ccccc2)c4-c2ccccc2)C(c2ccccc2)=C3c2ccccc2)cc1` yielded a photoluminescence quantum yield (in ClCCl) of 0.004.
Compound `COC(=O)c1ccc(C2=C(/C=C/c3ccc(OC)cc3)O[B-](F)(F)[O+]=C2/C=C/c2ccc(OC)cc2)cc1` returned a photoluminescence quantum yield (in ClCCl) of 0.43.
The same measure, in the same setting: the result for `COc1ccc(C#Cc2c(C#Cc3ccc(OC)cc3)c(C#Cc3ccc(OC)cc3)c(C#Cc3ccc(OC)cc3)c(C#Cc3ccc(OC)cc3)c2C#Cc2ccc(OC)cc2)cc1` reads 0.55.
On the same count and under the same terms, next, `CC(C)(C)NC(=O)c1cccc2ccc3c4ccccc4c4ccccc4c3c12`: 0.03; `CC(C)(C)NC(=O)c1ccc(-c2cc3ccccc3s2)c2ccc3c4ccccc4c4ccccc4c3c12`: 0.27.
`COc1ccc(/C=C/C(=O)c2ccccc2O)cc1OC` returned a photoluminescence quantum yield (in C1CCOC1) of 0; a photoluminescence quantum yield (in C1COCCO1) of 0.072; a photoluminescence quantum yield (in CC#N) of 0.28; a photoluminescence quantum yield (in CCCO) of 0.37; a photoluminescence quantum yield (in CCO) of 0.15; a photoluminescence quantum yield (in CN(C)C=O) of 0.36. In addition, the photoluminescence quantum yield is, setting by setting: (in CO) 0.24; (in CS(C)=O) 0.47; (in ClC(Cl)Cl) 0.053; (in ClCCl) 0.037.
`C=CC1CN2CCC1CC2[C@@H](OCc1ccccc1)c1ccnc2ccc(O)cc12` (stereo not given in full): the photoluminescence quantum yield runs as follows: (in C1CCOC1) 0.12; (in CC#N) 0.016; (in CCCC#N) 0.021; (in Cc1ccccc1) 0.06; (in ClCCl) 0.035.
Compound `N#CC1=CC(Br)=CC(C#N)=P1(c1ccccc1)c1ccccc1` registered a photoluminescence quantum yield (in ClC(Cl)Cl) of 0.52.
Turning to `COc1nc(Cl)nc(Nc2ccc3c4c(cccc24)C(=O)c2ccccc2-3)n1`, the photoluminescence quantum yield is 0.52 (in CC#N); 0.54 (in CC(C)=O); 0.5 (in CC(C)O); 0.05 (in CCCCOCCCC); 0.34 (in CCOC(C)=O); 0.12 (in CCOCC). The compound also had a photoluminescence quantum yield (in CO) of 0.33; a photoluminescence quantum yield (in Cc1ccccc1) of 0.27; a photoluminescence quantum yield (in Clc1ccccc1) of 0.5; a photoluminescence quantum yield (in N#Cc1ccccc1) of 0.58; a photoluminescence quantum yield (in O=C1CCCCC1) of 0.51.
Regarding `CN(C)c1ccc(/C=C/c2nc3c4ccccc4c4ccccc4c3[nH]2)cc1`, the photoluminescence quantum yield is, setting by setting: (in C1CCOC1) 0.055; (in C1COCCO1) 0.176; (in CC1CCCCC1) 0.195; (in CC#N) 0.058; (in CCOC(C)=O) 0.048; (in CCOCC) 0.147. The compound also displayed a photoluminescence quantum yield (in CN(C)C=O) of 0.04; a photoluminescence quantum yield (in COC(C)=O) of 0.03; a photoluminescence quantum yield (in CS(C)=O) of 0.067; a photoluminescence quantum yield (in Cc1ccccc1) of 0.114; a photoluminescence quantum yield (in ClC(Cl)Cl) of 0.035.
`C1=[N+](c2ccccc2)[B-](c2ccccc2)(c2ccccc2)Oc2c1ccc1c3c(ccc21)C=[N+](c1ccccc1)[B-](c1ccccc1)(c1ccccc1)O3`: the photoluminescence quantum yield is 0.7 (in Cc1ccccc1) and 0.76 (in ClCCl).
`COC(=O)C1=C(C(=O)OC)C2(c3ccccc3-c3ccccc32)[C@@H](c2ccccc2)C=C2c3cc(OC)c(OC)cc3CCN21` had a photoluminescence quantum yield (in ClCCl) of 0.00354.
The same measure, in the same setting: next, `COc1ccc(C2=C3C(/C=C/c4cc(OC)c(OC)c(OC)c4)=C(C=O)C(C)=[N+]3[B-](F)(F)n3c(/C=C/c4cc(OC)c(OC)c(OC)c4)c(C=O)c(C=Cc4cc(OC)c(OC)c(OC)c4)c32)cc1`: 0.1.
Consider `N#Cc1ncc(-c2c3ccccc3c(-c3cnc(C#N)nc3)c3ccccc23)cn1`, for which the photoluminescence quantum yield (in CCO) stood at 0.05 and the photoluminescence quantum yield (in ClCCl) came to 0.57.
Turning to `CCc1c(C(=O)OC)c(C(=O)OC)c2ccc(-c3ccccc3)nn12`, the photoluminescence quantum yield (in CCCCCC) was 0.543.
As for `Brc1ccc(/C=C/c2cnc3ccccc3n2)cc1`, the photoluminescence quantum yield (in ClCCl) was 0.02.
Take `O=Cc1cnc(-c2c3ccccc3cc3ccccc23)nc1`: the photoluminescence quantum yield (in CCO) was 0.25 and the photoluminescence quantum yield (in ClCCl) was found to be 0.28.
For `c1ccc2c(-c3cc(-c4nccs4)nc(-c4nccs4)c3)c3ccccc3cc2c1`, the photoluminescence quantum yield came to 0.134 (in CC#N), 0.418 (in CCCCCC), 0.0206 (in CO) and 0.214 (in ClC(Cl)Cl).
In the case of `CCN(CC)c1ccc2c(c1)oc(=O)c1c(-c3ccccc3C(=O)O)c3ccc(=[N+](CC)CC)cc-3oc12`, the photoluminescence quantum yield stood at 0.21 (in CCO), 0.51 (in ClC(Cl)Cl) and 0.01 (in O).
Turning to `COc1cc2c(cc1-c1ccc(N(C)C)cc1)Cc1c3c(c4c(c1-2)-c1cc(OC)c(-c2ccc(N(C)C)cc2)cc1C4)C(=O)N(CCC(C)C)C3=O`, the photoluminescence quantum yield (in C1CCOC1) was 0.02.
In turn, `c1ccc2c(c1)[nH]c1c3ccccc3[nH]c21` gave a photoluminescence quantum yield (in CCCO) of 0.89.
In the case of `CCN(CC)c1ccc2cc(/C=C(\C#N)c3nc4ccccc4s3)c(=O)oc2c1`, the photoluminescence quantum yield runs as follows: (in C1COCCO1) 0.0043; (in CC#N) 0.0027; (in CCO) 0.0048; (in CCOC(C)=O) 0.0035; (in CN(C)C=O) 0.0122; (in CO) 0.0061. Further, the photoluminescence quantum yield is 0.0104 (in CS(C)=O), 0.0036 (in Cc1ccccc1) and 0.0033 (in ClCCl).
In turn, `N#Cc1ccc(C=C(c2ccccc2)c2ccccc2)cc1` returned a photoluminescence quantum yield (in C1CCOC1) of 0.046.
Turning to `CCCCn1c(-c2ccc(-c3ccc(-c4ccc(-c5n(CCCC)c6ccccc6[n+]5CCCC)cc4)cc3)cc2)[n+](CCCC)c2ccccc21`, the photoluminescence quantum yield (in O) amounted to 0.77.
As for `Nc1n[n+]([O-])c2ccccc2[n+]1[O-]`, the photoluminescence quantum yield runs as follows: (in CC#N) 0.006; (in O) 0.0033.
Turning to `CC(C)(C)N1C(=O)c2c(cc3ccc4cccc5ccc2c3c45)C1O` (stereo not given), the photoluminescence quantum yield (in ClC(Cl)Cl) was 0.14 and 0.143.
In turn, `c1ccc(-c2cnc3nn4ccccc4c3n2)cc1` showed a photoluminescence quantum yield (in C1CCOC1) of 0.96.
Under “in ClC(Cl)Cl”, `Cc1cc(C)c(C2=C3C=CC=[N+]3[B-]3(F)Oc4cc(O)cc5c6ccc(C)cc6c6cc2n3c6c45)c(C)c1` (stereo not given) gave a photoluminescence quantum yield of 0.35.
On the same count and under the same terms, the result for `c1ccc(-c2ccnc(-c3ccccc3)n2)cc1` reads 0.51.
Consider `Nc1cccc2c1C(=O)c1ccccc1-2`, for which the photoluminescence quantum yield is, setting by setting: (in C1CCCCC1) 0.031; (in CC#N) 0.057; (in CCO) 0.068; (in c1ccccc1) 0.055.
On to `Cc1cccc2nc3c(=O)[nH]c(=O)[nH]c3nc12`, for which the photoluminescence quantum yield by setting is: (in C1COCCO1) 0.033; (in CC#N) 0.018; (in CCO) 0.03; (in CO) 0.044; (in ClCCCl) 0.028; (in O) 0.053.
On to `Cc1ccccc1[B-]1(c2ccccc2C)n2nc(C(F)(F)F)cc2-c2c3ccccc3cc[n+]21`, for which the photoluminescence quantum yield worked out at 0.0285 (in C1CCCCC1), 0.0259 (in Cc1ccccc1) and 0.0197 (in ClCCl).
The compound `Cc1cc(-c2ccc3ccccc3c2)cc(C)[o+]1` registered a photoluminescence quantum yield (in ClCCl) of 0.64.
Compound `c1ccc(/C(=C(\c2ccccc2)c2cc(-c3ccccc3)ccc2-c2ccc(-c3ccccc3)cc2)c2cc(-c3ccccc3)ccc2-c2ccc(-c3ccccc3)cc2)cc1` displayed a photoluminescence quantum yield (in C1CCOC1) of 0.38.
On to `CC(C)CCC[C@@H](C)[C@H]1CC[C@H]2[C@@H]3CC=C4C[C@@H](OC(=O)Oc5cc(/C=C/c6ccc(N(C)C)cc6)ccc5[N+](=O)[O-])CC[C@]4(C)[C@H]3CC[C@]12C`, for which the photoluminescence quantum yield by setting is: (in C1CCCCC1) 0.29; (in C1COCCO1) 0.09; (in CCCCCCC) 0.29; (in Cc1ccccc1) 0.18.
`CCn1c(-c2ccc(-c3ccc(-c4ccc(-c5n(CC)c6cc(C)ccc6[n+]5CC)cc4)cc3)cc2)[n+](CC)c2ccc(C)cc21` showed a photoluminescence quantum yield (in O) of 0.72.
`COc1cc2c(cc1OC)C1=C3C(=O)N4C=Cc5cc(OC)c(OC)cc5C4=C3C(=O)N1C=C2`: the photoluminescence quantum yield by setting is: (in CN(C)C=O) 0.7; (in ClC(Cl)Cl) 0.85.
`CCCCCCCCCCCCOc1cc2c3c(ccc4c5c(SCCCCCCCCCCCC)cc6c7c(ccc(c1c34)c75)C(=O)N(C1CCCCC1)C6=O)C(=O)N(C1CCCCC1)C2=O` gave a photoluminescence quantum yield (in ClC(Cl)Cl) of 0.39.
As for `c1cc2ccc1CCCc1ccc(c3nsnc13)CCC2`, the photoluminescence quantum yield (in C1CCCCC1) was determined as 0.51, the photoluminescence quantum yield (in CC#N) was 0.19 and the photoluminescence quantum yield (in ClC(Cl)Cl) is 0.49.
Regarding `CCC1=C(C)C2=C(c3c(C)cc(C)nc3-c3cccs3)c3c(C)c(CC)c(C)n3[B-](F)(F)[N+]2=C1C`, the photoluminescence quantum yield reads like this: (in C1CCCCC1) 0.53; (in C1CCOC1) 0.46; (in C1COCCO1) 0.49; (in CC#N) 0.45; (in CCCCCC) 0.52; (in CCO) 0.47. Also, the photoluminescence quantum yield (in CCOC(C)=O) was determined as 0.47; the photoluminescence quantum yield (in CCOCC) was 0.5; the photoluminescence quantum yield (in CN(C)C=O) is 0.44; the photoluminescence quantum yield (in CS(C)=O) turned out to be 0.44; the photoluminescence quantum yield (in Cc1ccccc1) came to 0.49; the photoluminescence quantum yield (in ClC(Cl)(Cl)Cl) came to 0.5. The photoluminescence quantum yield (in ClC(Cl)Cl) came out at 0.49.
Take `CCN(CC)c1ccc(-n2c(C)ccc2C)cc1`: the photoluminescence quantum yield runs as follows: (in CC#N) 0.24; (in CCCCCC) 0.17.
